Reference: patent US10206902B2, “Mono- or di-substituted indoles as dengue viral replication inhibitors” (priority 2014, dated 2019)

How the values were obtained:
DENV-2 16681 strain = assay: DENV-2 antiviral assay (eGFP-labelled virus in Vero cells); type: cell-based, Dengue virus; conditions: Dengue virus, DENV2, Vero, 72 h, DENV-2 16681 eGFP, MOI 0.5, 3 days
Protocol: The antiviral activity of all the compounds of the invention was tested against DENV-2 16681 strain which was labeled with enhanced green fluorescent protein (eGPF). The culture medium consists of minimal essential medium supplemented with 2% of heat-inactivated fetal calf serum, 0.04% gentamycin (50 mg/mL) and 2 mM of L-glutamine. Vero cells, obtained from ECACC, were suspended in culture medium and 25 μL was added to 384-well plates (2500 cells/well), which already contain the antiviral compounds. Typically, these plates contain a 4-fold serial dilution of 9 dilution steps of the test compound at 200 times the final concentration in 100% DMSO (200 nL). In addition, each compound concentration is tested in quadruplicate (final concentration range: 25 μM-0.00038 μM). Finally, each plate contains wells which are assigned as virus controls (containing cells and virus in the absence of compound), cell controls (containing cells in the absence of virus and compound) and medium controls (containing medium in the absence of cells, virus and compounds). To the wells assigned as medium control, 25 μL of culture medium was added instead of Vero cells. Once the cells were added to the plates, the plates were incubated for 30 minutes at room temperature to allow the cells to distribute evenly within the wells. Next, the plates were incubated in a fully humidified incubator (37° C., 5% CO2) until the next day. Then, DENV-2 strain 16681, labeled with eGFP, was added at a multiplicity of infection (MOI) of 0.5. Therefore, 15 μL of virus suspension was added to all the wells containing test compound and to the wells assigned as virus control. In parallel, 15 μL of culture medium was added to the medium and cell controls. Next, the plates were incubated for 3 days in a fully humidified incubator (37° C., 5% CO2). At the day of the read out, the eGFP fluorescence was measured using an automated fluorescence microscope at 488 nm (blue laser). Using an in-house LIMS system, inhibition dose response curves for each compound were calculated and the half maximal effective concentration (EC50) was determined. Therefore, the percent inhibition (I) for every test concentration is calculated using the following formula: I=100*(ST−SCC)/(SVC−SCC); ST, SCC and SVC are the amount of eGFP signal in the test compound, cell control and virus control wells, respectively. The EC50 represents the concentration of a compound at which the virus replication is inhibited with 50%, as measured by a 50% reduction of the eGFP fluorescent intensity compared to the virus control. The EC50 is calculated using linear interpolation (Table 1).

in vitro = type: cell-based; conditions: African green monkey, CC50
Protocol: In parallel, the toxicity of the compounds was assessed on the same plates. Once the read-out for the eGFP signal was done, 10 μL of resazurin, a cell viability stain, was added to all wells of the 384-well plates. The resazurin assay is based on the reduction of the blue resazurin by NADH, produced by the cells, into the highly fluorescent product, resorufin. The formation of pink fluorescent resorufin is directly related to the number of viable cells in the well. The plates were incubated for an additional 5 hours in a fully humidified incubator (37° C., 5% CO2). Next, the plates were measured on an Infinite reader (Tecan) using an excitation wavelength of 530 nm. The half maximal cytotoxic concentration (CO50) was also determined, defined as the concentration required to reduce the resazurin conversion by 50% compared to that of the cell control wells (Table 1). Finally, the selectivity index (SI) was determined for the compounds, which was calculated as followed: SI=CC50/EC50.

COc1cc(NC(C(=O)c2c[nH]c3c(C)cc(F)cc23)c2ccc(F)cc2OC)cc(OCCO)c1 (racemic) [Compound 9, 2-(4-fluoro-2-methoxyphenyl)-1-(5-fluoro-7-methyl-1H-indol-3-yl)-2-((3-(2-hydroxyethoxy)-5-methoxyphenyl)amino)ethanone]
melting point: 179 °C
EC50 (DENV-2 16681 strain): 0.0094 µM
CC50 (in vitro): 7.5 µM
